The text below walks through data of PubChem BioAssay (NCI).

In general, TGI refers to the concentration at which net growth stops. A low value points to more potent growth arrest. As a reminder, the GI50 is the concentration that inhibits growth by half.

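Grown in 96-well plates, cells were treated for 48 hours with each compound at five concentrations. Insufficient inhibition: endpoint recorded as highest concentration tested. GI50 marks 50% less growth. TGI marks complete inhibition of growth.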

The first assay relates to SK-OV-3 ovarian. Briefly: DTP human tumour cell line panel, 48 h.
In turn, `NS(=O)(=O)c1cc(Br)c(N=Nc2ccc(O)c3ncccc23)c(Br)c1` returned a total growth inhibition concentration (TGI) above 100 µM.

Consider `Cc1cc(I)cc(CN(C)CCCN2CCCCC2)c1O`, for which the GI50 was 15.7 µM and the TGI amounted to 31.6 µM.

For the compound `COc1cc(NCc2ccc3oc(=O)c(-c4ccccc4)nc3c2)cc(OC)c1OC`, the TGI was above 10 µM.

`Cc1ccccc1S(=O)(=O)OC1NS(=O)(=O)c2ccccc21` (stereo not given) came in with a TGI above 100 µM.

Turning to `C=C(Br)C(C)(Br)CCC(Br)C(C)(C)Cl` (stereo not given), the TGI worked out at 60.4 µM.

Compound `O=[N+]([O-])C(/C=C(\Cl)n1nnc2ccccc21)=C(/Cl)n1nnc2ccccc21` gave a TGI above 100 µM.

Regarding `O=C1c2cc3c(cc2-c2c1c1ccc(F)cc1c(=O)n2CCCNCCO)OCO3`, the GI50 was 0.0525 µM and the TGI was 0.566 µM.

Consider `COc1ccc(-c2nnc(COc3ccc(NC(=O)Nc4cc(C(F)(F)F)cc(C(F)(F)F)c4)cc3F)o2)cc1`, for which the GI50 was 3.76 µM and the total growth inhibition concentration (TGI) amounted to 12.7 µM.

Regarding `COc1ccc(-c2nnc(COc3ccc(C(=O)/C=C/c4ccco4)cc3)o2)cc1`, the GI50 was 12.2 µM and the TGI was determined as 24.6 µM.

Compound `OC(c1nc2ccccc2[nH]1)C(O)C(O)C(O)c1nc2ccccc2[nH]1` (stereo not given) showed a TGI above 100 µM.

Regarding `COc1cc2c3c(n(C)c(=O)c2cc1OC)-c1cc2c(cc1/C3=C\CCCN)OCO2`, the GI50 was 41 µM and the concentration for total growth inhibition (TGI) is above 100 µM.

Turning to `Cc1c2c(nn1-c1ccc(S(=O)(=O)/N=C3\SCCC(=O)N3c3ccccc3)cc1)-c1ccccc1CC2`, the GI50 is above 100 µM and the TGI was above 100 µM.

With `C=C1C(=O)O[C@H]2[C@H]1CC/C(COC(=O)c1c[nH]c3ccccc13)=C\CC[C@@]1(C)O[C@@H]21`, the GI50 was 2.24 µM and the TGI turned out to be 5.59 µM.

Consider `CCN(CC)/C(SCc1ccccc1)=C(\C(Cl)=C(Cl)Cl)[N+](=O)[O-]`, for which the TGI is above 100 µM.

Another assay concerns NCI-H522 lung. Briefly: DTP human tumour cell line panel, 48 h.
`CCOC(=O)c1cc2nc3ccccc3c(=O)n2c2ccccc12`: the TGI is above 10 µM.

For the compound `Cc1ccc(S(=O)(=O)Nc2ccccc2C(=O)c2ccc(C)c(C)c2)cc1`, the TGI is above 100 µM.

Regarding `COc1c(Cl)c(=O)oc2ccc(Cl)cc12`, the TGI was above 100 µM.

For `NS(=O)(=O)c1cc(Br)c(N=Nc2ccc(O)c3ncccc23)c(Br)c1`, the TGI was above 100 µM.

In the case of `Cc1cc(I)cc(CN(C)CCCN2CCCCC2)c1O`, the GI50 was 16.7 µM and the TGI was determined as 31.4 µM.

In the case of `COc1cc(NCc2ccc3oc(=O)c(-c4ccccc4)nc3c2)cc(OC)c1OC`, the TGI was above 10 µM.

The compound `Cc1ccccc1S(=O)(=O)OC1NS(=O)(=O)c2ccccc21` (stereo not given) returned a TGI above 100 µM.

With `CC(=O)[C@@]12O[C@@H]1CC1C3CCC4=CC(O)CCC4(C)C3CCC12C` (stereo not given in full), the GI50 was above 100 µM and the TGI was above 100 µM.

`C=C(Br)C(C)(Br)CCC(Br)C(C)(C)Cl` (stereo not given) returned a TGI of 20.4 µM.

Consider `O=[N+]([O-])C(/C=C(\Cl)n1nnc2ccccc21)=C(/Cl)n1nnc2ccccc21`, for which the TGI was above 100 µM.

With `O=C1c2cc3c(cc2-c2c1c1ccc(F)cc1c(=O)n2CCCNCCO)OCO3`, the GI50 is 0.014 µM and the TGI amounted to 0.106 µM.

Consider `COc1ccc(-c2nnc(COc3ccc(NC(=O)Nc4cc(C(F)(F)F)cc(C(F)(F)F)c4)cc3F)o2)cc1`, for which the GI50 was 2.15 µM and the TGI was found to be 5.35 µM.

Consider `COc1ccc(/C=C(/C#N)n2nnc3cccc(F)c32)cc1`, for which the 50% growth inhibitory concentration (GI50) was 0.301 µM and the concentration for total growth inhibition (TGI) is above 100 µM.

As to `COc1ccc(-c2nnc(COc3ccc(C(=O)/C=C/c4ccco4)cc3)o2)cc1`, the GI50 is 2.59 µM and the TGI was 5.62 µM.

With `OC(c1nc2ccccc2[nH]1)C(O)C(O)C(O)c1nc2ccccc2[nH]1` (stereo not given), the TGI was above 100 µM.

With `COc1cc2c3c(n(C)c(=O)c2cc1OC)-c1cc2c(cc1/C3=C\CCCN)OCO2`, the GI50 is 0.61 µM and the TGI was determined as 23.4 µM.

For the compound `Cc1c2c(nn1-c1ccc(S(=O)(=O)/N=C3\SCCC(=O)N3c3ccccc3)cc1)-c1ccccc1CC2`, the GI50 was 91.4 µM and the TGI is above 100 µM.

For `C=C1C(=O)O[C@H]2[C@H]1CC/C(COC(=O)c1c[nH]c3ccccc13)=C\CC[C@@]1(C)O[C@@H]21`, the GI50 was 0.194 µM and the concentration for total growth inhibition (TGI) stood at 0.412 µM.

`O=C1NCC2(CCN(CCCC3(c4ccc(F)cc4)OCCO3)CC2)N1c1ccccc1` gave a concentration for total growth inhibition (TGI) above 100 µM.

Compound `CCN(CC)/C(SCc1ccccc1)=C(\C(Cl)=C(Cl)Cl)[N+](=O)[O-]` returned a TGI of 47.2 µM.

Regarding `COc1cc(/C=C2\CN(S(=O)(=O)c3ccccc3)C/C(=C\c3cc(CN4CCCC4)c(O)c(OC)c3)C2=O)cc(CN2CCCC2)c1O`, the GI50 was 0.318 µM and the TGI is 2.11 µM.

Another assay has as its system OVCAR-3 ovarian. Briefly: DTP human tumour cell line panel, 48 h.
Regarding `CCOC(=O)c1cc2nc3ccccc3c(=O)n2c2ccccc12`, the TGI was above 10 µM.

Compound `Cc1ccc(S(=O)(=O)Nc2ccccc2C(=O)c2ccc(C)c(C)c2)cc1` showed a total growth inhibition concentration (TGI) above 100 µM.

In turn, `COc1c(Cl)c(=O)oc2ccc(Cl)cc12` returned a TGI above 100 µM.

`NS(=O)(=O)c1cc(Br)c(N=Nc2ccc(O)c3ncccc23)c(Br)c1`: the concentration for total growth inhibition (TGI) is above 100 µM.

On to `Cc1cc(I)cc(CN(C)CCCN2CCCCC2)c1O`, for which the GI50 is 15.9 µM and the TGI worked out at 33.1 µM.

`COc1cc(NCc2ccc3oc(=O)c(-c4ccccc4)nc3c2)cc(OC)c1OC` showed a TGI above 10 µM.

With `Cc1ccccc1S(=O)(=O)OC1NS(=O)(=O)c2ccccc21` (stereo not given), the total growth inhibition concentration (TGI) is above 100 µM.

Turning to `CC(=O)[C@@]12O[C@@H]1CC1C3CCC4=CC(O)CCC4(C)C3CCC12C` (stereo not given in full), the GI50 was 78.5 µM and the TGI is above 100 µM.

`C=C(Br)C(C)(Br)CCC(Br)C(C)(C)Cl` (stereo not given) yielded a total growth inhibition concentration (TGI) of 33.5 µM.

In turn, `O=[N+]([O-])C(/C=C(\Cl)n1nnc2ccccc21)=C(/Cl)n1nnc2ccccc21` returned a TGI above 100 µM.

With `O=C1c2cc3c(cc2-c2c1c1ccc(F)cc1c(=O)n2CCCNCCO)OCO3`, the GI50 was 0.0751 µM and the TGI was found to be 0.826 µM.

As for `COc1ccc(-c2nnc(COc3ccc(NC(=O)Nc4cc(C(F)(F)F)cc(C(F)(F)F)c4)cc3F)o2)cc1`, the GI50 was 1.5 µM and the TGI was 4.66 µM.

`COc1ccc(/C=C(/C#N)n2nnc3cccc(F)c32)cc1`: the GI50 was 0.316 µM and the TGI is 0.899 µM.
